Here are results for 1 molecule from patent US7851467B2, “Carbamate compounds as 5-HT4 receptor agonists” (Theravance, Inc., priority 2005, dated 2010).

In this experiment the target is T1, human 5-HT4(c) receptor (Homo sapiens, UniProt Q13639).
T1 construct: expressed in transfected cells; host or cells: HEK-293
The experiment is described as follows: Radioligand binding assay on 5-HT4(c) human receptors ([3H]-GR113808 displacement). The conditions noted are these: HEK-293 membranes, [3H]-GR113808 at 0.15 nM, read-out: pKi value (converted). The procedure: Assay 1: Radioligand Binding Assay on 5-HT4(C) Human Receptors a. Membrane Preparation 5-HT4(c)
HEK-293 (human embryonic kidney) cells stably-transfected with human 5-HT4(C) receptor cDNA (Bmax=˜6.0 pmol/mg protein, as determined using [^3H]-GR113808 membrane radioligand binding assay) were grown in T-225 flasks in Dulbecco's Modified Eagles Medium (DMEM) containing 4,500 mg/L D-glucose and pyridoxine hydrochloride (GIBCO-Invitrogen Corp., Carlsbad Calif.: Cat #11965) supplemented with 10% fetal bovine serum (FBS) (GIBCO-Invitrogen Corp.: Cat #10437), 2 mM L-glutamine and (100 units) penicillin-(100 μg) streptomycin/ml (GIBCO-Invitrogen Corp.: Cat #15140) in a 5% CO2, humidified incubator at 37° C. […]
For the membrane preparation, cell pellets were resuspended in ice-cold 50 mM 4-(2-hydroxyethyl)-1-piperazineethanesulphonic acid (HEPES), pH 7.4 (membrane preparation buffer) (40 mL/total cell yield from 30-40 T225 flasks) and homogenized using a polytron disrupter (setting 19, 2×10 s) on ice. […] Protein concentration of the membrane suspension was determined by the method of Bradford (Bradford, 1976). […]
Test compounds were received as 10 mM stock solutions in DMSO and diluted to 400 μM into 50 mM HEPES pH 7.4 at 25° C., containing 0.1% BSA, and serial dilutions (1:5) then made in the same buffer. Non-specific binding was determined in the presence of 1 μM unlabeled GR113808. […]

T1 sequence (Q13639 1-380 isoform Q13639-4): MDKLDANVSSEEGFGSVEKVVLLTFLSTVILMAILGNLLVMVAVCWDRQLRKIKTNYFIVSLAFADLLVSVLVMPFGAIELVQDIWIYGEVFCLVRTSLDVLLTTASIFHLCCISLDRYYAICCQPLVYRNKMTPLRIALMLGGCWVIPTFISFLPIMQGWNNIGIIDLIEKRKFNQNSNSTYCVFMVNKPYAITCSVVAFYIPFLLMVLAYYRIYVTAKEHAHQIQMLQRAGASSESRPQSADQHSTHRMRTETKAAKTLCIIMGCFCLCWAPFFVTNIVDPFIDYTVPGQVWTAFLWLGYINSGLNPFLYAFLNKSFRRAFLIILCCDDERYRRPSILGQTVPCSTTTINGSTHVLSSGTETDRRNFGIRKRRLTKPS

On to `CC(C)n1c(=O)n(C(=O)N[C@H]2C[C@H]3CC[C@@H](C2)N3CCCOC(=O)N2CCN(C(=O)C3CCCO3)CC2)c2ccccc21` (stereo partly drawn) [Example 1, 4-(tetrahydrofuran-2-carbonyl)piperazine-1-carboxylic acid 3-{(1S,3R,5R)-3-[(3-isopropyl-2-oxo-2,3-dihydrobenzoimidazole-1-carbonyl)amino]-8-aza-bicyclo[3.2.1]oct-8-yl}propyl ester], for which the Ki was 12.6 nM.
